Tested on in one series: not listed separately
The series is described as follows: MDR1-MDCKII permeability assay Papp(AB). Type of series: in vitro ADME. Conditions: dog, MDCK-MDR1, parent compounds, A to B, 60-minute incubation at 37° C., pH 7.4. On the procedure:
(§1) MDR1-MDCKII Permeability Assay Papp(AB)
(§2) MDR1-MDCKII cells (obtained from Piet Borst at the Netherlands Cancer Institute) were seeded onto […] (PET) in 96-well BD insert systems at 2.5×10^5 cells/mL until to 4-7 days for confluent cell monolayer formation.
(§3) Test compounds were diluted with the transport buffer (HBSS with 10 mM HEPES, added 1% BSA, pH 7.4) from DMSO stock solution to a concentration of 0.5 μM (DMSO: 0.4%) and applied to the apical or basolateral side of the cell monolayer. Permeation of the test compounds from A to B direction or B to A direction was determined in triplicate over a 60-minute incubation at 37° C. and 5% CO2 with a relative humidity of 95%. In addition, the efflux ratio of each compound was also determined. Test and reference compounds were quantified by LC/MS/MS analysis based on the peak area ratio of analyte/IS.
(§4) Reference compounds: Fenoterol (conc: 2 μM) was used as low permeability marker and Propranolol (conc: 2 μM) was used as high permeability marker in A to B Permeability, furthermore was bi-directional permeability of a P-glycoprotein substrate (digoxin) included.
(§5) The apparent permeability coefficient Papp (cm/s) was calculated using the equation: Papp=(dCr/dt)×Vr/(A×C0) (1) Where dCr/dt is the cumulative concentration of compound in the receiver chamber as a function of time (μM/s); Vr is the solution volume in the receiver chamber (0.05 mL on the apical side; 0.25 mL on the basolateral side); A is the surface area for the transport, i.e. 0.0804 cm^2 for the area of the monolayer; C0 is the initial concentration in the donor chamber (μM).
(§6) The efflux was calculated using the equation: Efflux ratio=Papp(BA)/Papp(AB) (2)
(§7) The mass balance (Recovery) was calculated. The mass balance is defined as: the sum of the compound recovered from the acceptor chamber and the compound remaining in the donor chamber at the end of the experiment, divided by the initial donor amount. The mass balance should be as high as possible. Criterion: Recovery <50% is insufficient.
(§8) To evaluate the integrity of the cell monolayer, Lucifer Yellow permeability was measured in one direction (A to B). The percentage of Lucifer Yellow was calculated in control wells as an estimation of the overall cell membrane integrity. The wells are considered fully acceptable if % Lucifer Yellow is less than 2%.
(§9) The experiments for the prodrugs were the same as for the parent compounds exemplified in Table 3a.
Regarding `N[C@H](CNC(=O)c1cc2nccc(C(F)(F)F)c2s1)C(=O)O` [Compound 1f, (R)-2-amino-3-(7-(trifluoromethyl)thieno[3,2-b]pyridine-2-carboxamido) propanoic acid], the apparent permeability from apical to basolateral (Papp A→B) at 60 min, 0.5 µM stood at 1.03 ×10⁻⁶ cm/s.

Still in this series, the particulars now being: dog, MDCK-MDR1, prodrug compounds, A to B, 60-minute incubation at 37° C., pH 7.4.
On to `Cc1ccnc2cc(C(=O)NC[C@@H](N)C(=O)OC3CCCCC3)sc12` [Compound 2n, Cyclohexyl (R)-2-amino-3-(7-methylthieno[3,2-b]pyridine-2-carboxamido)propanoate], for which the Papp A→B at 60 min, 0.5 µM stood at 5.86 ×10⁻⁶ cm/s.

Consider `COC(=O)[C@H](N)CNC(=O)c1cc2nccc(OC)c2s1` [Compound 2r, Methyl (R)-2-amino-3-(7-methoxythieno[3,2-b]pyridine-2-carboxamido)propanoate], for which the Papp A→B at 60 min, 0.5 µM was 5.54 ×10⁻⁶ cm/s.

As to `CCCCOC(=O)[C@H](N)CNC(=O)c1cc2nccc(C)c2s1` [Compound 2h, Butyl (R)-2-amino-3-(7-methylthieno[3,2-b]pyridine-2-carboxamido)propanoate], the apparent permeability from apical to basolateral (Papp A→B) at 60 min, 0.5 µM came out at 6.11 ×10⁻⁶ cm/s.

Turning to `CCCOC(=O)[C@H](N)CNC(=O)c1cc2nccc(C)c2s1` [Compound 2e, Propyl (R)-2-amino-3-(7-methylthieno[3,2-b]pyridine-2-carboxamido)propanoate], the apparent permeability from apical to basolateral (Papp A→B) at 60 min, 0.5 µM stood at 10.3 ×10⁻⁶ cm/s.

As to `COC(=O)[C@H](N)CNC(=O)c1cc2nccc(C(F)(F)F)c2s1` [Compound 2s, Methyl (R)-2-amino-3-(7-(trifluoromethyl)thieno[3,2-b]pyridine-2-carboxamido)propanoate], the apparent permeability from apical to basolateral (Papp A→B) at 60 min, 0.5 µM was determined as 12.3 ×10⁻⁶ cm/s.

Take `COC(=O)[C@H](N)CNC(=O)c1cc2nccc(OC(C)C)c2s1` [Compound 2t, Methyl (R)-2-amino-3-(7-isopropoxythieno[3,2-b]pyridine-2-carboxamido)propanoate]: the Papp A→B at 60 min, 0.5 µM was 4.81 ×10⁻⁶ cm/s.

`COCCOC(=O)[C@H](N)CNC(=O)c1cc2nccc(C)c2s1` [Compound 2k, 2-Methoxyethyl (R)-2-amino-3-(7-methylthieno[3,2-b]pyridine-2-carboxamido)propanoate]: the Papp A→B at 60 min, 0.5 µM came out at 4.77 ×10⁻⁶ cm/s.

Another series has as its system MDR1-MDCKII cells. In words: MDR1-MDCKII permeability assay Papp(AB). Type of series: in vitro ADME. The following applies: parent compounds; 0.5 μM; A to B; 60-minute incubation at 37° C.; pH 7.4. On the procedure: as §1, §2, §3, §4, §5, §6, §7, §8, §9
As to `Cc1ccnc2cc(C(=O)NC[C@@H](N)C(=O)O)sc12` [Compound 1c, (R)-2-amino-3-(7-methylthieno[3,2-b]pyridine-2-carboxamido)propanoic acid], the “Permeability Papp (AB)” value is listed as “BLOQ”.

With `N[C@H](CNC(=O)c1cc2nccc(C3CC3)c2s1)C(=O)O` [Compound 1b, (R)-2-amino-3-(7-cyclopropylthieno[3,2-b]pyridine-2-carboxamido) propanoic acid], the “Permeability Papp (AB)” value is given as “BLOQ”.

In the case of `N[C@H](CNC(=O)c1cc2nccc(C(F)F)c2s1)C(=O)O` [Compound 1a, (R)-2-amino-3-(7-(difluoromethyl)thieno[3,2-b]pyridine-2-carboxamido)propanoic acid], the “Permeability Papp (AB)” value is given as “BLOQ”.

Take `CCc1ccccc1-c1ccnc2cc(C(=O)NC[C@@H](N)C(=O)O)sc12` [Compound 1d, (R)-2-amino-3-(7-(2-ethylphenyl)thieno[3,2-b]pyridine-2-carboxamido)propanoic acid]: the “Permeability Papp (AB)” value is “BLOQ”.

In the case of `CC(C)Oc1ccnc2cc(C(=O)NC[C@@H](N)C(=O)O)sc12` [Compound 1g, (R)-2-amino-3-(7-isopropoxythieno[3,2-b]pyridine-2-carboxamido)propanoic acid], the “Permeability Papp (AB)” value is “BLOQ”.

On to `COc1ccnc2cc(C(=O)NC[C@@H](N)C(=O)O)sc12` [Compound 1e, (R)-2-amino-3-(7-methoxythieno[3,2-b]pyridine-2-carboxamido)propanoic acid], for which the “Permeability Papp (AB)” value is reported as “BLOQ”.

Tested on in a further series: not listed separately
In words: In vivo exposure (plasma and brain) after intravenous bolus injection. The following applies: compound quantified 1h; dose 2 mg/kg intravenous bolus; male Sprague Dawley rats.
Procedure: Brain disposition of test compound was evaluated in male Sprague Dawley rats (standard body weight range). Briefly, discrete (nominal dose: 2 mg/kg, 2 ml/kg) or cassetted (nominal dose: 1 mg/kg/compound, 2 ml/kg) test compounds were administered by intravenous bolus injection (formulated in 10% hydroxypropyl-β-cyclodextrin or 10-20% Captisol, pH=3).
Serial blood samples were collected from a lateral tail vein at designated time points (n=3 per time point) then rats were put under deep isofluorane induced anaesthesia prior to removal of brains (n=3 per time point). Blood samples were stabilized against further metabolism ex vivo by addition of an esterase inhibitor (100 μM diisopropyl fluorophosphate). […]
Seven calibration standards and three QC samples were prepared in plasma and brain homogenate, respectively, in the concentration range 10-10000 ng/mL. […] Study samples with expected concentration above upper limit of quantification were diluted with blank matrix. […]
Samples were analyzed using an AB Sciex API4000 triple quadrupole (TQ) mass spectrometer operated in positive and negative electrospray ionization and MS/MS mode (multiple reaction monitoring, MRM). […] Quantification was performed by linear regression, 1/x2 weighting.
Concentrations of prodrug and drug in plasma and brain were quantified against matrix matched calibration standards.
For `COC(=O)[C@H](N)CNC(=O)c1cc2nccc(Br)c2s1` [Compound 2u, Methyl (R)-2-amino-3-(7-bromothieno[3,2-b]pyridine-2-carboxamido)propanoate], the “Total Brain concentration (ng/mL) 30 min post dose” value is given as “BLOQ”.

The term Papp A→B denotes the apparent permeability from the apical to the basolateral side of a cell layer.
